Assay results published in patent US12649751B2 (Arcus Biosciences, Inc., priority 2022, dated 2026).
Read-outs that look alike come from different tables or passages of the source.

Tests used:
HPK1 = HPK1 (Homo sapiens, UniProt Q92918); test: HPK1 Biochemical Assay (ADP-Glo luminescence; low ATP 10 μM or high ATP 200 μM); conditions: HPK1 ADP-Glo assay
[1] = test system: p-SLP-76 (Ser376) in Jurkat cells; test: pSLP76 Cellular Assay (AlphaLISA SureFire Ultra p-SLP-76 (Ser376), anti-CD3 activated Jurkat cells); format: cell-based; conditions: Homo sapiens; pSLP76 (Ser376) AlphaLISA, anti-CD3 activated Jurkat cells; read-out: Cellular Potency
How it was run: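 Jurkat cells, serum-starved overnight in Opti-MEM then in HBSS, preincubated 1 h at 37 °C with 22-point 2-fold compound dilutions, then stimulated with anti-CD3 (0.025 mg/ml added solution) for 45 min. Lysate p-SLP-76 (Ser376) measured by AlphaLISA at 570 nm; IC50 from 4-parameter logistic fit.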

[2] = high ATP (200 μM ATP, 5 nM HPK1), read-out: Biochemical Potency (high ATP)
[3] = low ATP (10 μM ATP, 2 nM HPK1), read-out: Biochemical Potency (low ATP)

Sequence of HPK1 (Q92918 whole entry, species assumed): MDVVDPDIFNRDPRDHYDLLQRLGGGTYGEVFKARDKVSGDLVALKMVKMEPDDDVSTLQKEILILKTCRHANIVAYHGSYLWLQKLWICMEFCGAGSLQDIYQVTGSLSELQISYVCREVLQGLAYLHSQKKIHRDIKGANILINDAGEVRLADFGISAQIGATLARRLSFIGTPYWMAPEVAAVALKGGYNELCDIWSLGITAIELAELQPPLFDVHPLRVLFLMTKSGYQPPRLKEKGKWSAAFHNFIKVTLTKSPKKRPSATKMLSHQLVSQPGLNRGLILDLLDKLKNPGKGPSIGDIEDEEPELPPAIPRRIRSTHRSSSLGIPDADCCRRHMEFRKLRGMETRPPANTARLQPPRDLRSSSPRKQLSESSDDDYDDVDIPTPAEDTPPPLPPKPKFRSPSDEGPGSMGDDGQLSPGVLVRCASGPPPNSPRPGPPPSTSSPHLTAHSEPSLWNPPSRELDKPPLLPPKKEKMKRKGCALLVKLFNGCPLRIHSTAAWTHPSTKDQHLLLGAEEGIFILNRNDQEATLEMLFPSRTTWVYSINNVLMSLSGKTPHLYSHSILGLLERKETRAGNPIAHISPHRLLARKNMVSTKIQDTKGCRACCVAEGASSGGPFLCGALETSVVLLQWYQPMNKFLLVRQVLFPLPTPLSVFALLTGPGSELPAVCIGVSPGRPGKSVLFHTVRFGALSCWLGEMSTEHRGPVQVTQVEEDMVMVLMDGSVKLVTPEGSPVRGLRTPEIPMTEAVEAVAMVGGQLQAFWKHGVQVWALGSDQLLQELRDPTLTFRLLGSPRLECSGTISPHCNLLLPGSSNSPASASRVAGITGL

Row | Compound | IC50 (HPK1; [2]) [nM] | IC50 [1] [nM] | IC50 (HPK1; [3]) [nM]
1 | CCN1C[C@@H]2C[C@H]1CN2c1nc(C)cc(Nc2cc3nc(-c4nc(N)ccc4C)sc3cn2)n1 [Example 296, N-[2-(6-amino-3-methylpyridin-2-yl)-[1,3]thiazolo[5,4-c]pyridin-6-yl]-2-[(1S,4S)-5-ethyl-2,5-diazabicyclo[2.2.1]heptan-2-yl]-6-methylpyrimidin-4-amine] | < 100 | < 100 | 
2 | CCN1C[C@@H]2C[C@H]1CN2c1nc(C)cc(Nc2cc3nc(-c4cncc(N5CCOC[C@H]5C)c4)sc3cn2)n1 [Example 297, 2-[(1S,4S)-5-ethyl-2,5-diazabicyclo[2.2.1]heptan-2-yl]-6-methyl-N-(2-{5-[(3R)-3-methylmorpholin-4-yl]pyridin-3-yl}-[1,3]thiazolo[5,4-c]pyridin-6-yl)pyrimidin-4-amine] | < 100 | 100 to 1000 | 
3 | CCN1C[C@@H]2C[C@H]1CN2c1nc(C)cc(Nc2cc3nc(O[C@H](C)c4ccccc4)sc3cn2)n1 [Example 298, 2-[(1S,4S)-5-ethyl-2,5-diazabicyclo[2.2.1]heptan-2-yl]-6-methyl-N-{2-[(1R)-1-phenylethoxy]-[1,3]thiazolo[5,4-c]pyridin-6-yl}pyrimidin-4-amine] | < 100 | < 100 | 
4 | Cc1cc(Nc2cc3nc(-c4nncn4C)sc3cn2)nc(N2C[C@@H]3C[C@H]2CN3CCO)n1 [Example 299, 2-[(1S,4S)-5-(4-methyl-6-{[2-(4-methyl-4H-1,2,4-triazol-3-yl)-[1,3]thiazolo[5,4-c]pyridin-6-yl]amino}pyrimidin-2-yl)-2,5-diazabicyclo[2.2.1]heptan-2-yl]ethan-1-ol] | < 100 | 100 to 1000 | 
5 | Cc1cccnc1-c1nc2cc(Nc3ccc4c(n3)CNCC4)ncc2s1 [Example 300, N-[2-(3-methylpyridin-2-yl)-[1,3]thiazolo[5,4-c]pyridin-6-yl]-5,6,7,8-tetrahydro-1,7-naphthyridin-2-amine] |  | 1000 to 5000 | < 100
6 | Cc1cc(Nc2cc3nc(-c4cnn(C)c4)sc3cn2)nc(N2C[C@@H]3C[C@H]2CN3CCO)n1 [Example 301, 2-[(1S,4S)-5-(4-Methyl-6-{[2-(1-methyl-1H-pyrazol-4-yl)-[1,3]thiazolo[5,4-c]pyridin-6-yl]amino}pyrimidin-2-yl)-2,5-diazabicyclo[2.2.1]heptan-2-yl]ethan-1-ol] | < 100 | < 100 | 
7 | Cc1cccnc1-c1nc2cc(Nc3cc(C4CCC(O)CC4)nc(N4C[C@@H]5C[C@H]4CN5)n3)ncc2s1 (stereo partly drawn) [Example 302, 4-{2-[(1S,4S)-2,5-diazabicyclo[2.2.1]heptan-2-yl]-6-{[2-(3-methylpyridin-2-yl)-[1,3]thiazolo[5,4-c]pyridin-6-yl]amino}pyrimidin-4-yl}cyclohexan-1-ol] | < 100 | < 100 | 
8 | Cc1cccnc1-c1nc2cc(Nc3cc(C(C)(C)O)nc(N4C[C@@H]5C[C@H]4CN5C)n3)ncc2s1 [Example 304, 2-{2-[(1S,4S)-5-methyl-2,5-diazabicyclo[2.2.1]heptan-2-yl]-6-{[2-(3-methylpyridin-2-yl)-[1,3]thiazolo[5,4-c]pyridin-6-yl]amino}pyrimidin-4-yl}propan-2-ol] | < 100 | 100 to 1000 | 
9 | CCN1C[C@@H]2C[C@H]1CN2c1nc(C)cc(Nc2cc3nc(-c4cccc(C(=O)N5CC[C@@H](C)C5)c4)sc3cn2)n1 [Example 305, [(R)-3-methyl-1-pyrrolidinyl]{m-[6-(2-{(1S,4S)-5-ethyl-2,5-diazabicyclo[2.2.1]hept-2-yl}-6-methyl-4-pyrimidinylamino)-3-thia-1,5-diaza-2-indenyl]phenyl}methanone] | < 100 | < 100 | 
10 | Cc1cc(Nc2cc3nc(-c4ccnc(C(O)C5CC5)c4)sc3cn2)nc(N2C[C@@H]3C[C@H]2CN3CCO)n1 (stereo partly drawn) [Example 307, 2-[(1S,4S)-5-(4-{2-[2-(cyclopropylhydroxymethyl)-4-pyridyl]-3-thia-1,5-diaza-6-indenylamino}-6-methyl-2-pyrimidinyl)-2,5-diazabicyclo[2.2.1]hept-2-yl]ethanol] | < 100 | < 100 | 
11 | Cc1cc(Nc2cc3nc(-c4ccnc(CC5CC5)c4)sc3cn2)nc(N2C[C@@H]3C[C@H]2CN3CCO)n1 [Example 308, 2-[(1S,4S)-5-(4-{2-[2-(cyclopropylmethyl)-4-pyridyl]-3-thia-1,5-diaza-6-indenylamino}-6-methyl-2-pyrimidinyl)-2,5-diazabicyclo[2.2.1]hept-2-yl]ethanol] | < 100 | < 100 | 
12 | Cc1cc(Nc2cc3nc(-c4cnn(C)c4C(C)(C)O)sc3cn2)nc(N2C[C@@H]3C[C@H]2CN3C)n1 [Example 309, 2-{4-[6-(2-{(1S,4S)-5-methyl-2,5-diazabicyclo[2.2.1]hept-2-yl}-6-methyl-4-pyrimidinylamino)-3-thia-1,5-diaza-2-indenyl]-1-methyl-5-pyrazolyl}-2-propanol] | < 100 | < 100 | 
13 | CCN1C[C@@H]2C[C@H]1CN2c1nc(C)cc(Nc2cc3nc(-c4cccc(CN5CCOC5=O)c4)sc3cn2)n1 [Example 310, (2-{(1S,4S)-5-ethyl-2,5-diazabicyclo[2.2.1]hept-2-yl}-6-methyl-4-pyrimidinyl)(2-{m-[(2-oxo-1,3-oxazolidin-3-yl)methyl]phenyl}-3-thia-1,5-diaza-6-indenyl)amine] | < 100 | 100 to 1000 | 
14 | CCN1C[C@@H]2C[C@H]1CN2c1nc(C)cc(Nc2cc3nc(-c4cccc(C(=O)N(C)C5CCN(S(C)(=O)=O)CC5)c4)sc3cn2)n1 [Example 311, N-(1-mesyl-4-piperidyl)-N-methylm-[6-(2-{(1S,4S)-5-ethyl-2,5-diazabicyclo[2.2.1]hept-2-yl}-6-methyl-4-pyrimidinylamino)-3-thia-1,5-diaza-2-indenyl]benzamide] | < 100 | 100 to 1000 | 
15 | Cc1cc(Nc2cc3nc(-c4cccc5c4CCCN5S(C)(=O)=O)sc3cn2)nc(N2C[C@@H]3C[C@H]2CN3C)n1 [Example 312, N-[2-(1-methanesulfonyl-1,2,3,4-tetrahydroquinolin-5-yl)-[1,3]thiazolo[5,4-c]pyridin-6-yl]-6-methyl-2-[(1S,4S)-5-methyl-2,5-diazabicyclo[2.2.1]heptan-2-yl]pyrimidin-4-amine] | 100 to 1000 | 1000 to 5000 | 
16 | Cc1cc(Nc2cc3nc(-c4cccc5c4CCCN5)sc3cn2)nc(N2C[C@@H]3C[C@H]2CN3C)n1 [Example 313, 6-methyl-2-[(1S,4S)-5-methyl-2,5-diazabicyclo[2.2.1]heptan-2-yl]-N-[2-(1,2,3,4-tetrahydroquinolin-5-yl)-[1,3]thiazolo[5,4-c]pyridin-6-yl]pyrimidin-4-amine] | < 100 | < 100 | 
17 | Cc1cccnc1-c1nc2cc(Nc3cccc(C4(F)CC5CC4CN5)n3)ncc2s1 (stereo not shown) [Example 315, {6-(5-fluoro-2-azabicyclo[2.2.1]hept-5-yl)-2-pyridyl}[2-(3-methyl-2-pyridyl)-3-thia-1,5-diaza-6-indenyl]amine] | < 100 | 1000 to 5000 | < 100
18 | Cc1cccnc1-c1nc2cc(Nc3ccc4c(n3)[C@](C)(N)CCC4)ncc2s1 [Example 316, (8R)-8-methyl-N2-[2-(3-methylpyridin-2-yl)-[1,3]thiazolo[5,4-c]pyridin-6-yl]-5,6,7,8-tetrahydroquinoline-2,8-diamine] |  | 1000 to 5000 | 1000 to 5000
19 | Cc1cccnc1-c1nc2cc(Nc3ccc4c(n3)[C@H](N)CCC4)ncc2s1 [Example 317, (8R)-N2-[2-(3-methylpyridin-2-yl)-[1,3]thiazolo[5,4-c]pyridin-6-yl]-5,6,7,8-tetrahydroquinoline-2,8-diamine] |  | 1000 to 5000 | < 100
20 | Cc1cc(Nc2cc3nc(-c4cncc(-c5ncccc5C)c4)sc3cn2)nc(N2C[C@@H]3C[C@H]2CN3CCO)n1 [Example 318, 2-[(1S,4S)-5-{6-methyl-4-[2-(3-methyl-2,3′-bipyridyl-5′-yl)-3-thia-1,5-diaza-6-indenylamino]-2-pyrimidinyl}-2,5-diazabicyclo[2.2.1]hept-2-yl]ethanol] | < 100 | < 100 | 
21 | Cc1cccnc1-c1nc2cc(Nc3nc(N4C[C@@H]5C[C@H]4CN5)ccc3F)ncc2s1 [Example 320] | < 100 | 100 to 1000 | < 100
22 | CCN1C[C@@H]2C[C@H]1CN2c1nc(Nc2cc3nc(-c4cccc(C(=O)N5CCC(F)CC5)c4)sc3cn2)ccc1C [Example 321] | < 100 | 100 to 1000 | 
23 | CCN1C[C@@H]2C[C@H]1CN2c1nc(Nc2cc3nc(-c4cnn(C)c4)sc3cn2)ccc1F [Example 322] | < 100 | 100 to 1000 | 
24 | Cc1cccnc1-c1nc2cc(Nc3cc(C(F)(F)F)cc(N4C[C@@H]5C[C@H]4CN5C)n3)ncc2s1 [Example 323] | < 100 | 100 to 1000 | < 100
25 | Cc1cccnc1-c1nc2cc(Nc3ccc4c(n3)CN(C)CC4)ncc2s1 [Example 327] |  | 100 to 1000 | < 100
26 | CN1CCc2ccc(Nc3cc4nc(-c5c(F)cccc5F)sc4cn3)cc2CC1 [Example 328] |  | 5000 to 25000 | 100 to 1000
27 | Fc1cccc(F)c1-c1nc2cc(Nc3ccc4c(c3)CC[C@@H](N3C5COCC3C5)CC4)ncc2s1 [Example 329] |  | 5000 to 25000 | 100 to 1000
28 | Cc1c(N)cncc1-c1nc2cc(Nc3ccc4c(c3)CCC(N3CCCC3)CC4)ncc2s1 (stereo not shown) [Example 330] |  | 5000 to 25000 | < 100
29 | Cc1cc(Nc2cc3nc(-c4cccc(C(=O)N(C)C)c4)sc3cn2)nc(N2C[C@@H]3C[C@H]2CN3C2CCN(S(C)(=O)=O)CC2)n1 [Example 331] | 100 to 1000 | 1000 to 5000 | 
